Tests used:
[1] = Stability of aqueous solution: gel formation by visual examination; format: physicochemical; details: room temperature
Protocol: Gel formation was determined by visual examination.

[2] = tested on: Serum LH; test: Efficacy of formulation in vivo: serum LH levels; details: 25 mg/ml in 5% mannitol, 80 μl/kg s.c., ovariectomised Rhesus monkeys
Protocol: Peptide 1 is dissolved in 5% mannitol (25 mg/ml). Three ovariectomised Rhesus monkeys are treated with this solution (80 μl/kg) by subcutaneous injection. Serum LH levels is measured for the following 101 days.

[3] = tested on: Serum Testosterone; test: Efficacy of formulation in vivo: serum testosterone levels; details: 5 mg/ml in 5% mannitol, 100 μl/kg s.c., adult male Beagle dogs
Protocol: Peptide 1 is dissolved in 5% mannitol (5 mg/ml). Three adult male Beagle dogs are treated with this solution (100 μl/kg) by subcutaneous injection. Serum Testosterone levels are measured for the following 42 days. When Testosterone levels started to incline again the experiment was terminated.

Substance: Ac-DNal-DCpa-DPal-Ser-Aph(L-Hor)-DAph(CONH2)-Leu-Lys(iPr)-Pro-DAla-NH2 [Peptide 1]
- Stability (time to gel formation) ([1]; 0.25 mg/ml (calculated as free base) in water): No gel formation after 6 months
- Stability (time to gel formation) ([1]; 1.0 mg/ml (calculated as free base) in water): No gel formation after 6 months
- Stability (time to gel formation) ([1]; 5.0 mg/ml (calculated as free base) in water): Gel formation after 4 weeks
- Stability (time to gel formation) ([1]; 10.0 mg/ml (calculated as free base) in water): Gel formation after 2 weeks
- Stability (time to gel formation) ([1]; 30.0 mg/ml (calculated as free base) in water): Gel formation after 48 hours
- Stability (time to gel formation) ([1]; 40.0 mg/ml (calculated as free base) in water): Gel formation after 24 hours
- Stability (time to gel formation) ([1]; 60.0 mg/ml (calculated as free base) in water): Gel formation after 8 hours
- Stability (time to gel formation) ([1]; 80.0 mg/ml (calculated as free base) in water): Rapid gel formation within 60 minutes
- Stability (time to gel formation) ([1]; 120.0 mg/ml (calculated as free base) in water): Rapid gel formation within 30 minutes
- Serum LH, mean ± se ([2]; Day 1): 10.5 ± 1.5 ng/mL
- Serum LH, mean ± se ([2]; Day 2): 11.8 ± 2.6 ng/mL
- Serum LH, mean ± se ([2]; Day 7): 6.7 ± 1.2 ng/mL
- Serum LH, mean ± se ([2]; Day 14): 5.8 ± 0.9 ng/mL
- Serum LH, mean ± se ([2]; Day 21): 6.6 ± 1.0 ng/mL
- Serum LH, mean ± se ([2]; Day 28): 9.4 ± 1.3 ng/mL
- Serum LH, mean ± se ([2]; Day 35): 8.8 ± 1.0 ng/mL
- Serum LH, mean ± se ([2]; Day 42): 11.8 ± 2.3 ng/mL
- Serum LH, mean ± se ([2]; Day 72): 29.5 ± 4.3 ng/mL
- Serum LH, mean ± se ([2]; Day 101): 48.9 ± 8.3 ng/mL
- Serum LH, mean ± se ([2]; Hour 6): 16.2 ± 1.9 ng/mL
- Serum LH, mean ± se ([2]; Time 0): 60.1 ± 7.5 ng/mL
- Serum Testosterone, mean ± se ([3]; Day 7): <0.2 nmol/L
- Serum Testosterone, mean ± se ([3]; Day 14): <0.2 nmol/L
- Serum Testosterone, mean ± se ([3]; Day 21): <0.2 nmol/L
- Serum Testosterone, mean ± se ([3]; Day 28): <0.2 nmol/L
- Serum Testosterone, mean ± se ([3]; Day 42): 3.3 ± 3 nmol/L
- Serum Testosterone, mean ± se ([3]; Hour 4): <0.2 nmol/L
- Serum Testosterone, mean ± se ([3]; Time 0): 13.8 ± 5.7 nmol/L

Reference: patent US20040038903A1, “Gonadotropin releasing hormone antagonists in gel-forming concentration” (priority 2001, published 2004)
